# Results published in paper PMC7252619 (PLoS ONE, 2020).
# Like-named read-outs stand apart in the source and are kept apart here.
# Assays:
# [1] = target: T1, NEK2 (Homo sapiens, UniProt P51955); assay: Kinase activity test (ReactionBiology), % enzyme activity relative to DMSO; assay type: biochemical; conditions: NEK2;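 note: FDA-approved drugs chosen by structure-based repositioning, each screened at 10 or 1 µM for kinase activity, expressed as percent of DMSO controls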
# T1 construct: purchased ReactionBiology
# T1 sequence (P51955 1-445): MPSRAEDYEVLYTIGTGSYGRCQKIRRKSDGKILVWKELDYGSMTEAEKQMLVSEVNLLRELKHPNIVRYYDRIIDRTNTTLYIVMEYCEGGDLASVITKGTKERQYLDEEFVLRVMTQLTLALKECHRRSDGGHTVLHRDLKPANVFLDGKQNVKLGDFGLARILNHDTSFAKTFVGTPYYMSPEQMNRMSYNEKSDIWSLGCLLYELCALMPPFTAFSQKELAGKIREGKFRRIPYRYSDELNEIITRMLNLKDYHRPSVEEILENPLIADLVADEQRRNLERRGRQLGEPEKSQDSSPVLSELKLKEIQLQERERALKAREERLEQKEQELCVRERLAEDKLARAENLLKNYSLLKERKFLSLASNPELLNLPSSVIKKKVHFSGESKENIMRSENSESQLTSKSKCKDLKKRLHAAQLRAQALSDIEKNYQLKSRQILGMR
# [2] = WST-1 cytotoxicity assay on RPMI1788 cells (B-cell line); assay type: cell-based, human; conditions: human, RPMI1788 cells (B-cell line), mean of 4 independent measures, read-out: Cytotoxicity, WST-1 RPMI 1788 IC 50 (µM) Mean
# Procedure: (§1) Compounds were prepared as 10 mM stock solutions in dimethylsulfoxide (DMSO)and were tested at 50-10-1-0.1-0.01 and 0.001 μM in the 4 assays.
# The human B cell line RPMI1788 (American Type Culture Collection, USA) and the human T cell line Jurkat (European Collection of Cell Cultures, ECACC, England) were maintained in RPMI1640 culture medium (BioWhittaker®, Lonza, Verviers, Belgium) containing 10% foetal calf serum (FCS, HyClone® Thermo Scientific, United Kingdom) and 5 μg/mL gentamicin sulphate (BioWhittaker®, Lonza, Verviers, Belgium) at 37°C and 5% CO2.
# WST-1 assays on RPMI-1788 cells and Jurkat cells were performed as follows: 20 μL of test compound dilution were added to each well containing exponential growing cells and the plates were incubated for 48 h at 37°C, 5% CO2. Untreated cells and positive control (1% triton X-100, for the last 15 min) served as reference for maximum and minimum viability. At the end of incubation 100 μL of supernatant were removed and replaced by 10 μL of WST-1 solution (Cell Proliferation Reagent WST-1, Roche Applied Science).
# [3] = WST-1 cytotoxicity assay on Jurkat cells (T-cell line); assay type: cell-based, human; conditions: human, Jurkat cells (T-cell line), mean of 4 independent measures, read-out: Cytotoxicity, WST-1 Jurkat IC 50 (µM) Mean
# [4] = system: human PBMCs (responder cells) with RPMI1788 stimulator cells; assay: Mixed Lymphocyte Reaction (MLR, T cell assay), 3H-thymidine incorporation; assay type: cell-based; conditions: for IC50: Homo sapiens, RPMI-1788, mean of 4 independent measures, read-out: T-cell efficacy, MLR IC 50 (µM) Mean
# Procedure: In order to test the efficacy and selectivity of the hit compounds on B-cells, 4 assays were performed: B-cell assay, Mixed Lymphocyte Reaction (MLR), WST-1 assay on RPMI1788 cells (B-cell line) and cytotoxicity WST-1 assay on Jurkat cells (T-cell line). Compounds were prepared as 10 mM stock solutions in dimethylsulfoxide (DMSO)and were tested at 50-10-1-0.1-0.01 and 0.001 μM in the 4 assays.
# Blood samples of healthy volunteers were collected at the Red Cross of Mechelen, Belgium. Each donor consents to the use of their blood for research purposes. […] The human B cell line RPMI1788 (American Type Culture Collection, USA) and the human T cell line Jurkat (European Collection of Cell Cultures, ECACC, England) were maintained in RPMI1640 culture medium (BioWhittaker®, Lonza, Verviers, Belgium) containing 10% foetal calf serum (FCS, HyClone® Thermo Scientific, United Kingdom) and 5 μg/mL gentamicin sulphate (BioWhittaker®, Lonza, Verviers, Belgium) at 37°C and 5% CO2.
# MLR assay (T cell assay): Freshly isolated human PBMCs (responder cells) were resuspended in RPMI1640 medium containing 10% FCS and 5nμg/mL gentamicin sulphate. RPMI1788 cells (stimulator cells) were inactivated by treatment with mitomycin C (Kyowa®, Takeda Belgium, Brussels, Belgium) for 20 min at 37°C, washed and finally suspended in culture medium. An amount of 100 μL of each cell suspension was mixed with 20 μL of diluted compound. The mixed cells were cultured at 37°C for 6 days in 5% CO2. DNA synthesis was assayed by the addition of 10 μCi (methyl-3H) thymidine (Perkin Elmer, Zaventem, Belgium) per well during the last 18 h in culture. Thereafter, the cells were harvested on glass filter paper and the counts per minute determined in a liquid scintillation counter (TopCount, Perkin Elmer, Zaventem, Belgium).
# [5] = target: T2, EPHB4 (Homo sapiens, UniProt P54760); assay: Kinase activity test (ReactionBiology), % enzyme activity relative to DMSO; assay type: biochemical; conditions: EPHB4;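 note: EPHB4 was one of ten selected kinases in the screening panel, with enzyme activity expressed as a percentage of DMSO controls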
# T2 construct: purchased ReactionBiology
# T2 sequence (P54760 16-987): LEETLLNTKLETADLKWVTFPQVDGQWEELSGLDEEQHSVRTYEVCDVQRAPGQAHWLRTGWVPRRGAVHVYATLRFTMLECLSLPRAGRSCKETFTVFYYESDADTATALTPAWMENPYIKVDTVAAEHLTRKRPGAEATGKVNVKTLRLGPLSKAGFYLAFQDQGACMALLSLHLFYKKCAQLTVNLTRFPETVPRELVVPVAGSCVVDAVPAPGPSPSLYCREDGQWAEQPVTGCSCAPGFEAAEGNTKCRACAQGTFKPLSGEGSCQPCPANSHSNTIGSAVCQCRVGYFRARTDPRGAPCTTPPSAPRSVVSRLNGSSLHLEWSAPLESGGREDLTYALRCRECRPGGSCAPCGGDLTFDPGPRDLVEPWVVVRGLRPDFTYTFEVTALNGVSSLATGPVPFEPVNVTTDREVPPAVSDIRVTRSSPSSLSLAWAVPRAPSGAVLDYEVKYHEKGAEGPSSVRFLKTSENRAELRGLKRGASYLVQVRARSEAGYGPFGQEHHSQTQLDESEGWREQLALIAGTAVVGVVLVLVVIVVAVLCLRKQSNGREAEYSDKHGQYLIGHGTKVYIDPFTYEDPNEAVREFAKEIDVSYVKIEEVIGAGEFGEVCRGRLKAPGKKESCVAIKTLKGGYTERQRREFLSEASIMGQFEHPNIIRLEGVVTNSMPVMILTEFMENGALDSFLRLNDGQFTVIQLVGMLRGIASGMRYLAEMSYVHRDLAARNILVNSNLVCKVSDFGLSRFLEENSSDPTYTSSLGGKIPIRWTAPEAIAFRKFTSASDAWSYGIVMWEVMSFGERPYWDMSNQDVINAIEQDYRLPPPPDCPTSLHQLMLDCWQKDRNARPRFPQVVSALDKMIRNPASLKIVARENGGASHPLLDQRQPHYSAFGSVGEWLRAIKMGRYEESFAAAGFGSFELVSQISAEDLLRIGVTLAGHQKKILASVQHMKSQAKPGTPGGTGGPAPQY
# [6] = target: T3, DAPK1 (Homo sapiens, UniProt P53355); assay: as above; assay type: biochemical; conditions: DAPK1
# T3 construct: purchased ReactionBiology
# [7] = system: human CD19+ B cells; assay: B-cell assay: IgG production of ODN2006-stimulated primary B cells (AlphaLISA); assay type: cell-based; conditions: Homo sapiens, B-cell, 168 h; IgG production, ODN2006 0.1 μM, 7 days; mean of 4 independent experiments; read-out: B-cell IC50
# Procedure: as §1
# Blood samples of healthy volunteers were collected at the Red Cross of Mechelen, Belgium.
# Highly purified naive peripheral human B cells were separated from fresh human PBMCs on magnetic columns by positive selection using CD19 magnetic beads according to the manufacturer’s instructions (MACS Miltenyi Biotech, Leiden, The Netherlands). […] Freshly isolated human CD19+ B cells were then plated at 25 000 cells per well in a 384-well plate (Perkin Elmer, Zaventem, Belgium) in 55 μL in DMEM medium containing 10% FCS and 5 μg/mL gentamicin sulphate. After 7 days of stimulation with 0.1 μM ODN2006 (InvivoGen, Toulouse, France), supernatant was taken for analysis of IgG using the AlphaLISA human IgG kit according to the manufacturer’s instructions (Perkin Elmer, Zaventem, Belgium).
# [8] = target: VEGFR2 (Homo sapiens, UniProt P35968); assay: Kinase activity test (ReactionBiology), % enzyme activity relative to DMSO; assay type: biochemical; parameters: purchased ReactionBiology; conditions: VEGFR2;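 note: VEGFR2 was one member of a ten-kinase screening panel testing marketed FDA-approved drugs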
# [9] = target: T4, CK1d (Homo sapiens, UniProt P48730); assay: as above; assay type: biochemical; conditions: CK1d
# T4 construct: purchased ReactionBiology
# [10] = Average, read-out: % Enzyme Activity (relative to DMSO controls), Average
# [11] = replicate Data 1, read-out: % Enzyme Activity (relative to DMSO controls), Data 1
# [12] = replicate Data 2, read-out: % Enzyme Activity (relative to DMSO controls), Data 2
# [13] = 1 uM, Average, read-out: % Enzyme Activity (relative to DMSO controls), Average
# [14] = 1 uM, replicate Data 1, read-out: % Enzyme Activity (relative to DMSO controls), Data 1
# [15] = 1 uM, replicate Data 2, read-out: % Enzyme Activity (relative to DMSO controls), Data 2
# [16] = 10 uM, Average, read-out: % Enzyme Activity (relative to DMSO controls), Average
# [17] = 10 uM, replicate Data 1, read-out: % Enzyme Activity (relative to DMSO controls), Data 1
# [18] = 10 uM, replicate Data 2, read-out: % Enzyme Activity (relative to DMSO controls), Data 2
# [19] = compound 1μM, relative to DMSO controls, read-out: % Enzyme activity at 1μM
# [20] = compound 10μM, relative to DMSO controls, read-out: % Enzyme activity at 10μM
# Sequence of VEGFR2 (P35968 20-1356): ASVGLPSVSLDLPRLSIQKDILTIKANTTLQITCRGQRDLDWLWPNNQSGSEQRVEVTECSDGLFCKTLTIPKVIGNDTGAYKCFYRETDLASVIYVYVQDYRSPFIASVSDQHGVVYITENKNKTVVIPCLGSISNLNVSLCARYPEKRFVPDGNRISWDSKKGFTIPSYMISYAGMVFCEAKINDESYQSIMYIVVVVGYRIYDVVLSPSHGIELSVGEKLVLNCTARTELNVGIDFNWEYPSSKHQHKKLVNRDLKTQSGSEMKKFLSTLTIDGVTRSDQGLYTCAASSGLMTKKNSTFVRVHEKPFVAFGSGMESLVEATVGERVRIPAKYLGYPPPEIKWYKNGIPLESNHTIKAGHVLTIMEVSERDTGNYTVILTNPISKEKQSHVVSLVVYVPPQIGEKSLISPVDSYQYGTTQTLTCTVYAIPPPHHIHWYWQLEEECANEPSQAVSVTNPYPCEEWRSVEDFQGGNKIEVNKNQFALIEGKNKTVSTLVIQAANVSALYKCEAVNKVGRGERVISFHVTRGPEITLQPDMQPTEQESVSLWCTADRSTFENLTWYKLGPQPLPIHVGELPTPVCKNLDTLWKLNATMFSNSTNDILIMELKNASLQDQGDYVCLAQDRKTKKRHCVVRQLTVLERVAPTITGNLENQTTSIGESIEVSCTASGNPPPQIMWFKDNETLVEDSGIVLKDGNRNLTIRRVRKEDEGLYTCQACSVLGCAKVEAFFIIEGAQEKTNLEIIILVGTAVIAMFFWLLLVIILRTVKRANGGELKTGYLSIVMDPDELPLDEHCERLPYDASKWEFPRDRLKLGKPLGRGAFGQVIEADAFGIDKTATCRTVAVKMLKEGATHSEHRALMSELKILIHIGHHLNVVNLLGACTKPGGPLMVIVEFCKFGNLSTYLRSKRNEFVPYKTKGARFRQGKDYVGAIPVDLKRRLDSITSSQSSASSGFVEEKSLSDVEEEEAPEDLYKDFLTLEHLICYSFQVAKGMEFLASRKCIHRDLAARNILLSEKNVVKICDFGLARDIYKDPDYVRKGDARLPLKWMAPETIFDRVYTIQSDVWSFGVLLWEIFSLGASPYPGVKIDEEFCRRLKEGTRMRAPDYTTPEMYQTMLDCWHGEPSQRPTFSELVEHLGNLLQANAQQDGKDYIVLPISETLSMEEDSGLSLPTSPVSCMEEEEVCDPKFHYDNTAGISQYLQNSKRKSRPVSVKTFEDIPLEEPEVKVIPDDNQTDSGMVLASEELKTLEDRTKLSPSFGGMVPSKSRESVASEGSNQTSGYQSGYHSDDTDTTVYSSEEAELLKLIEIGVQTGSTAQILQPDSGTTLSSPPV
# T3 sequence (P53355 whole entry): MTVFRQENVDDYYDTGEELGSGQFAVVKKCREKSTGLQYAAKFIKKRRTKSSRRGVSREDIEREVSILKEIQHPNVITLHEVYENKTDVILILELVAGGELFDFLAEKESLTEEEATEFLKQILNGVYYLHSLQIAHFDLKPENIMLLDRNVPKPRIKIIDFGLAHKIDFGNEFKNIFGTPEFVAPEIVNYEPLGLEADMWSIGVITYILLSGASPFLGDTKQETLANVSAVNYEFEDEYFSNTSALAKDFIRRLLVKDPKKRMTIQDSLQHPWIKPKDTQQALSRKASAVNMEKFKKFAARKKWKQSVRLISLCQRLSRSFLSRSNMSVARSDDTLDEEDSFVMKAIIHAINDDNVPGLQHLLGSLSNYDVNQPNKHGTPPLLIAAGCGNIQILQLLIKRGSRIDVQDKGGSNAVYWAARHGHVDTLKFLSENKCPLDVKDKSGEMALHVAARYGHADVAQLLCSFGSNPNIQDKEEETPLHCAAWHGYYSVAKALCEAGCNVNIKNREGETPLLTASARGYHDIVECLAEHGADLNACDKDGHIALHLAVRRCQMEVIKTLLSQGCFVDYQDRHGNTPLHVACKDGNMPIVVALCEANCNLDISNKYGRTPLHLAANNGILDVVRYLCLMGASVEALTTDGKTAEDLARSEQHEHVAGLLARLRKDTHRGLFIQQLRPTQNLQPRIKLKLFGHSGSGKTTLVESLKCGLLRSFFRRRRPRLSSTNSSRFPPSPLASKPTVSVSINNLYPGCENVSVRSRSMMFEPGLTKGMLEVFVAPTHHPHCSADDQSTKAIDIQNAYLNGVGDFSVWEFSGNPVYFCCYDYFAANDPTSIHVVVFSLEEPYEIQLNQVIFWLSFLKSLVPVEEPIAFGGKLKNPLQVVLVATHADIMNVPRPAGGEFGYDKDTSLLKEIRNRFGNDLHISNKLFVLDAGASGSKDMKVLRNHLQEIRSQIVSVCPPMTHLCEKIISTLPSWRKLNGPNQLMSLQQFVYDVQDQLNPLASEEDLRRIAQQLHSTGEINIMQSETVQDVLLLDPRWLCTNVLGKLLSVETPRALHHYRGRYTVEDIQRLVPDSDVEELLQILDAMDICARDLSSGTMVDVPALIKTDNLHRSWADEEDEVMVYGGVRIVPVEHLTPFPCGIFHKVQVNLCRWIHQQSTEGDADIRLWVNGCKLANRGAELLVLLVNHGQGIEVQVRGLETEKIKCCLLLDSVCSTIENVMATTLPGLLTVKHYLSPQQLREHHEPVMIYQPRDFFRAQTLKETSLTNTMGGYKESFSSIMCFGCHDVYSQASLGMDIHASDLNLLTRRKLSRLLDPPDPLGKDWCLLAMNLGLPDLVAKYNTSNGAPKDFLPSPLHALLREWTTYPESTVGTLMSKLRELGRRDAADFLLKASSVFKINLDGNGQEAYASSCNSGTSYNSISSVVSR
# T4 sequence (P48730 whole entry): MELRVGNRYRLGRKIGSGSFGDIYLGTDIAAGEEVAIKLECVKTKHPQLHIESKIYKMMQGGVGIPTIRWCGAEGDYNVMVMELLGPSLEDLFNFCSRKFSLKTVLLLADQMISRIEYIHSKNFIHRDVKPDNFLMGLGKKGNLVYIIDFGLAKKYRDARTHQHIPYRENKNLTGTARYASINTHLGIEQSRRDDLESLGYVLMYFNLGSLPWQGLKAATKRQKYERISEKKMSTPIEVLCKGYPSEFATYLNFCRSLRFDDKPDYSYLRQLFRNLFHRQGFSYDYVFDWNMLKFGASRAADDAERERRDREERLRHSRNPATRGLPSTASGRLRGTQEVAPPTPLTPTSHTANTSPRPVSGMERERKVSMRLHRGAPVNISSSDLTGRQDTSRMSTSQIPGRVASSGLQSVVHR
SMILES,"remaining activity at 1 µM [1, 10] [%]","remaining activity at 1 µM [1, 11] [%]","remaining activity at 1 µM [1, 12] [%]","remaining activity at 10 µM [1, 10] [%]","remaining activity at 10 µM [1, 11] [%]","remaining activity at 10 µM [1, 12] [%]",IC50 at 48 h [2] [µM],IC50 at 48 h [3] [µM],IC50 [4] [µM],"remaining activity at 1 µM [5, 13] [%]","remaining activity at 1 µM [5, 14] [%]","remaining activity at 1 µM [5, 15] [%]","remaining activity at 10 µM [5, 16] [%]","remaining activity at 10 µM [5, 17] [%]","remaining activity at 10 µM [5, 18] [%]","remaining activity at 1 µM [6, 13] [%]","remaining activity at 1 µM [6, 14] [%]","remaining activity at 1 µM [6, 15] [%]","remaining activity at 10 µM [6, 16] [%]","remaining activity at 10 µM [6, 17] [%]",also measured
"NC(=O)c1cccnc1 [Niacinamide, reference compound]",87.3,81,93.6,76.4,65,87.8,> 50,> 50,> 50,69.3,69,69.6,69.7,68.3,71.1,111,112,110,100,97.7,"remaining activity at 1 µM [5, 19]: 69.3%; remaining activity at 10 µM [5, 20]: 69.7%; remaining activity at 10 µM [6, 18]: 103%; IC50 [7]: > 50 µM; remaining activity at 1 µM [8, 10]: 96.4%; remaining activity at 1 µM [8, 11]: 97.5%; remaining activity at 1 µM [8, 12]: 95.4%; remaining activity at 10 µM [8, 10]: 95.7%; remaining activity at 10 µM [8, 11]: 90.6%; remaining activity at 10 µM [8, 12]: 101%; remaining activity at 1 µM [9, 10]: 113%; remaining activity at 1 µM [9, 11]: 107%; remaining activity at 1 µM [9, 12]: 119%; remaining activity at 10 µM [9, 10]: 101%; remaining activity at 10 µM [9, 11]: 97.9%; remaining activity at 10 µM [9, 12]: 105%"
"C[C@]12CC[C@@H]3c4ccc(O)cc4CC[C@H]3[C@@H]1CC[C@@H]2O [Estradiol, reference compound]",92.1,95.7,88.5,89,94.9,83,35.9,19.5,21.2,100,99.8,100,91.9,91.3,92.5,111,98,123,69,68.3,"Selectivity Index (SI) MLR/B-cell ([4]; ratio of IC50 values): 0.63; remaining activity at 10 µM [6, 18]: 69.7%; remaining activity at 1 µM [6, 19]: 111%; remaining activity at 10 µM [6, 20]: 69%; IC50 [7]: 33.9 µM; remaining activity at 1 µM [8, 10]: 115%; remaining activity at 1 µM [8, 11]: 115%; remaining activity at 1 µM [8, 12]: 115%; remaining activity at 10 µM [8, 10]: 105%; remaining activity at 10 µM [8, 11]: 106%; remaining activity at 10 µM [8, 12]: 103%; remaining activity at 1 µM [9, 10]: 101%; remaining activity at 1 µM [9, 11]: 99.6%; remaining activity at 1 µM [9, 12]: 102%; remaining activity at 10 µM [9, 10]: 96.5%; remaining activity at 10 µM [9, 11]: 98.7%; remaining activity at 10 µM [9, 12]: 94.2%"
